Assay results taken from patent publication US5681966A, “Compounds and methods for the treatment of cardiovascular, inflammatory and immune disorders” (Cytomed, Inc., priority 1995, dated 1997).

What was measured:
5-lipoxygenase [1] = target: T1, 5-lipoxygenase (Rattus norvegicus, UniProt P12527); test: Inhibition of soluble 5-lipoxygenase in RBL-1 cell extract (cytosol 5-lipoxygenase of rat basophile leukemia cells; RBL); format: biochemical; conditions: for IC50: RBL-1 cell extract; for activity in 5-lipoxygenase assay: qualitative
T1 construct: The supernatant solution (cytosol fraction) containing 5-lipoxygenase was stored; endogenous in cells; host or cells: RBL-1 rat basophilic leukemia cells, 105,000 x g supernatant (cytosol)
T1 sequence (P12527 1-673): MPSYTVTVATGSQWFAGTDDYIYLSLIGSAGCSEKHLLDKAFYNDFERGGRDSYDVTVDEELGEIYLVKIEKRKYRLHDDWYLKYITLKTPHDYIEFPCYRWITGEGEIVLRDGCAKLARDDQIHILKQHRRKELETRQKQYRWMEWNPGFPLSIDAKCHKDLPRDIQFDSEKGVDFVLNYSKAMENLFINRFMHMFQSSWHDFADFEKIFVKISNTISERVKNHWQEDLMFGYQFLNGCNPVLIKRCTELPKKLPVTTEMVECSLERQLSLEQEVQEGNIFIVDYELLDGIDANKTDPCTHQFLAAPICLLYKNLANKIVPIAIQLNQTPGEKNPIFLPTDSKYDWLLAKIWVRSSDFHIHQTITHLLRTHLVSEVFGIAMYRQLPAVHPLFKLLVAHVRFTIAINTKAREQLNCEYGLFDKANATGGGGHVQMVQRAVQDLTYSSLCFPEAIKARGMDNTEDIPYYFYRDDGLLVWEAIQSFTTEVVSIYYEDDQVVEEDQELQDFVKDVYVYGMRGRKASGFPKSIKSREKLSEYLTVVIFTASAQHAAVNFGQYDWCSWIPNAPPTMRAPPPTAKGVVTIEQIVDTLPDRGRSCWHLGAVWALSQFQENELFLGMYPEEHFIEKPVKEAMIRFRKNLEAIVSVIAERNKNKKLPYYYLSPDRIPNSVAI
Experimental: Effect of Compounds on Cytosol 5-Lipoxygenase of Rat Basophile Leukemia Cells
Washed rat RBL cells (4×108) were suspended in 20 ml of […] potassium phosphate buffer at pH 7.4 containing 10% ethylene glycol/1 mM EDTA (Buffer A). The cell suspension was sonicated at 20 KHz for 30 seconds, and the sonicate was centrifuged at 10,000 × g for 10 minutes, followed by further centrifugation at 105,000 × g for 1 hr. The supernatant solution (cytosol fraction) containing 5-lipoxygenase was stored at -70° C. Protein concentration was determined according to the procedure of Bradford (Bradford Dye Reagent) with bovine serum albumin as a standard.
For routine assay of 5-lipoxygenase the mixture contained 50 mM potassium phosphate buffer at pH 7.4, 2 mM CaCl2, 2 mM ATP, […] arachidonic acid (0.1 Ci) and enzyme ([…] of protein) in a final volume of […]. The reaction was carried out at 24° C. for 3 minutes. The mixture was extracted with 0.2 ml of an ice-cold mixture of ethyl ether:methanol: 0.2M citric acid (30:4:1). The extract was subjected to thin-layer chromatography at -10° C. in a solvent system of petroleum ether:ethyl ether:acetic acid (15:85:0.1). The silica gel zones corresponding to authentic arachidonic acid and its metabolites were scraped into scintillation vials for counting. The enzyme activity was expressed in terms of the amount of arachidonic acid oxygenated for 3 minutes.
Table 3 provides data for the inhibition of soluble 5-lipoxygenase in RBL-1 cell extract by racemic compound 202, as well as its enantiomers, compounds […], 234, and 236.

[2] = system: 5-lipoxygenase (ex vivo LTB4); test: Ex vivo whole blood 5-lipoxygenase evaluation (ex vivo LTB4); format: in vivo; conditions: rat, 10 mg/kg po, 180'
Experimental: Ex-vivo Mouse and Rat Whole Blood 5-lipoxygenase Evaluation
CD-1 female mice, weighing 18-25 grams, and CD female rates, weighing 150-230 grams, were obtained from Charles River Labs. Compounds were dissolved in 0.5% DMSO in 0.9% NaCl for administration in mice (0.5 mg/ml) and in an alcohol Vehicle (2% benzyl alcohol, 1% ethanol, 40% PEG 300 10% propylene glycol, 47% of 5% dextrose plus 3.5% pluronic F-68 in DiH2 O) for use in rates (5 mg/ml). […] Heparinized whole blood (0.3 ml) was added into 1.5 ml Eppendorf centrifuge tub containing […] of 2 mM calcium ionophore A23187 (the final concentration of A23187 was […]). The sample was incubated for 30 minutes in a water bath of 37° C., and then centrifuged for 2 minutes. The plasma was diluted (×120) and assayed for LTB4 using EIA.
Table 3 provides data for the ex-vivo mouse and rat whole blood 5-lipoxygenase values on administration of racemic compound 202, as well as its enantiomers, compounds 216, 217, 234, and 236.

platelets = conditions: active concentration; cited from earlier work
[3] = cited from earlier work
PAF receptor = conditions: cited from earlier work; for PAF receptor antagonism / inhibition of PAF binding: qualitative
[4] = system: PAF-induced rat cutaneous vascular permeability; conditions: 30 mg/kg body weight; orally active; cited from earlier work
5-lipoxygenase [5] = conditions: qualitative; cited from earlier work

C[C@H](C#C[C@@H]1CC[C@@H](c2ccc(F)cc2)O1)N(O)C(N)=O
IC50 (5-lipoxygenase [1]): 3800 nM

C[C@@H](C#C[C@@H]1CC[C@@H](c2ccc(F)cc2)O1)N(O)C(N)=O
IC50 (5-lipoxygenase [1]): 3510 nM

C[C@H](C#C[C@H]1CC[C@H](c2ccc(F)cc2)O1)N(O)C(N)=O
IC50 (5-lipoxygenase [1]): 3100 nM

C[C@@H](C#C[C@H]1CC[C@H](c2ccc(F)cc2)O1)N(O)C(N)=O
IC50 (5-lipoxygenase [1]): 2000 nM

NC(=O)N(O)CCCCC1CCC(c2ccc(F)cc2)O1 (stereo not shown)
IC50 (5-lipoxygenase [1]): 618 nM | ex vivo LTB4 % (inhibition), last sub-column [2]: 83%

NC(=O)N(O)CCCC[C@@H]1CC[C@@H](c2ccc(F)cc2)O1
IC50 (5-lipoxygenase [1]): 1100 nM

1-O-alkyl-2-acetyl-sn-glycerol-3-phosphorylcholine [PAF]
potency (active at) (platelets): 10^-12 to 10^-9 M | plasma half life [3]: 2 to 4 min

CCCCCCCCCCCCCCCCCCNC(=O)OCC(COP(=O)([O-])OCC[n+]1ccsc1)OC (racemic) [CV-3988, rac-3-(N-n-octadecyl-carbamoyloxy-ω-methoxypropyl-2-thiazolioethyl phosphate]
PAF receptor antagonism / inhibition of PAF binding (PAF receptor): PAF receptor antagonist properties

CC(C#C[C@@H]1CC[C@@H](c2ccc(F)cc2)O1)N(O)C(N)=O (relative stereo)
IC50 (5-lipoxygenase [1]): 2800 nM | inhibition at 1.6 µM (5-lipoxygenase [1]; dose 1.6 uM, read-out: RBL % inh.): 20%

CN(O)C(=O)NCCCO[C@@H]1CC[C@@H](c2ccc(F)cc2)O1 (relative stereo) [Compound 9, 2-(4-fluorophenyl)-5-[3-(N'-methyl-N'-hydroxyureidyl)propoxy] tetrahydrofuran]
activity in 5-lipoxygenase assay (5-lipoxygenase [1]): showed activity in this assay

CN(O)C(=O)NCCCO[C@@H]1CC[C@H](c2ccc(F)cc2)O1 (relative stereo) [Compound 11, 2-(4-fluorophenyl)-5-[3-(N'-methyl-N'-hydroxyureidyl)propoxy] tetrahydrofuran]
activity in 5-lipoxygenase assay (5-lipoxygenase [1]): showed activity in this assay

NC(=O)N(O)CCCO[C@@H]1CC[C@@H](c2ccc(F)cc2)O1 (relative stereo) [Compound 14, 2-(4-fluorophenyl)-5-(3-hydroxyureidylpropoxy) tetrahydrofuran]
activity in 5-lipoxygenase assay (5-lipoxygenase [1]): showed activity in this assay

NC(=O)N(O)CCCO[C@@H]1CC[C@H](c2ccc(F)cc2)O1 (relative stereo) [Compound 15, 2-(4-fluorophenyl)-5-(3-hydroxyureidylpropoxy) tetrahydrofuran]
activity in 5-lipoxygenase assay (5-lipoxygenase [1]): showed activity in this assay

COc1cc([C@H]2CC[C@H](c3cc(OC)c(OC)c(OC)c3)O2)cc(OC)c1OC (relative stereo) [L-652,731, trans-2,5-bis-(3,4,5-trimethoxyphenyl) tetrahydrofuran]
PAF receptor antagonism / inhibition of PAF binding (PAF receptor): inhibits the binding of tritiated PAF to PAF receptor sites | relative potency, trans versus cis (PAF receptor; trans-L-652,731 vs cis-L-652,731): approximately 1000 times | inhibition of PAF-induced cutaneous vascular permeability [4]: inhibit PAF-induced rat cutaneous vascular permeability | effect on 5-lipoxygenase (5-lipoxygenase [5]): no effect on the enzyme 5-lipoxygenase

COc1cc([C@H]2CC[C@H](c3cc(OC)c(OC)c(OC)c3)S2)cc(OC)c1OC (relative stereo) [L-653,150, trans-2,5-bis-(3,4,5-trimethoxyphenyl)tetrahydrothiophene]
PAF receptor antagonism / inhibition of PAF binding (PAF receptor): potent PAF antagonist | effect on 5-lipoxygenase (5-lipoxygenase [5]): moderate inhibitor of 5-lipoxygenase

CCCOc1c(OC)cc([C@@H]2CC[C@@H](c3cc(OC)c(OC)c(OC)c3)O2)cc1S(C)(=O)=O (relative stereo) [L-659,989, trans-2-(3-methoxy-4-propoxyphenyl-5-methylsulfonyl)-5-(3,4,5-trimethoxyphenyl)tetrahydrofuran]
PAF receptor antagonism / inhibition of PAF binding (PAF receptor): orally active, potent, competitive PAF receptor antagonist | equilibrium inhibition constant relative to trans-L-652,731 (PAF receptor; vs trans-L-652,731): 10 times

C=CCC1=C[C@@]2(OC)C(=CC1=O)O[C@H](c1ccc(OC)c(OC)c1)[C@H]2C [kadsurenone]
PAF receptor antagonism / inhibition of PAF binding (PAF receptor): potent, specific and competitive inhibitor of PAF activity at the receptor level
